Experimental data reported in patent US20210139484A1, “DIHYDROISOQUINOLINE-2(1H)-CARBOXAMIDE AND RELATED COMPOUNDS AND THEIR USE IN TREATING MEDICAL CONDITIONS” (GOSSAMER BIO SERVICES, INC., priority 2018, published 2021).

target: T1, human HPK1 protein (Homo sapiens, UniProt Q92918); experiment: Human HPK1 protein TR-FRET assay; assay type: biochemical; details: 1 mM ATP, Table 19
T1 construct: recombinant human HPK1 protein (a.a. 1-346) was expressed in Sf9 insect cells; GST (N); purchased Signalchem M23-11G; host or cells: Sf9 insect cells (baculovirus)
T1 sequence (Q92918 1-346): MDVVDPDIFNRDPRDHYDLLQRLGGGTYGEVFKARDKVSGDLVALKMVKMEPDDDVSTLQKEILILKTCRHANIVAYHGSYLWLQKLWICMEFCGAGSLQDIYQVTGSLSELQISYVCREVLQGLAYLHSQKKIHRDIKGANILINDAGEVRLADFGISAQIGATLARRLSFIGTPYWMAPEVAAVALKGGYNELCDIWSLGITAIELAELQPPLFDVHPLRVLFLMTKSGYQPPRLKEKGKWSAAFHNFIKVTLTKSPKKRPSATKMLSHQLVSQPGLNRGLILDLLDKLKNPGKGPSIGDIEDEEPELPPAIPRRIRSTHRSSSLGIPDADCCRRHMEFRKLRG
Description: Exemplary compounds from the above Examples were tested for ability to inhibit HPK1 using a human HPK1 protein TR-FRET Assay. Assay procedures and results are described below.
N-terminal GST-tagged recombinant human HPK1 protein (a.a. 1-346) was expressed in Sf9 insect cells using a baculovirus expression system (Signalchem Catalog #M23-11G). The enzyme was diluted in assay buffer (50 mM Tris pH 7.5, 1 mM MgCl2, 0.01% NP-40 and 2 mM DTT) to obtain a 4× working solution at a concentration of 40 nM HPK1 enzyme.
A 5 μM stock of ULight™ CREBtide peptide RRPSYRK (Perkin Elmer Product No. TRF0107-M) derived from human cAMP Response Element Binding (CREB) Protein was prepared in storage buffer containing 50 mM Tris-HCl (pH 7.4), 0.9% NaCl, 0.1% BSA, and 0.05% sodium azide. The CREBtide substrate was diluted in assay buffer (50 mM Tris pH 7.5, 1 mM MgCl2, 0.01% NP-40, 2 mM DTT) with 2 mM ATP to a final concentration of 200 nM CREBtide peptide to obtain a 2× working solution of substrate. HPK1 enzyme and CREBtide substrate solutions were mixed with compounds diluted in DMSO to obtain a final concentration of enzyme, substrate, and ATP of 10 nM, 100 nM, and 1 mM, respectively, in 1% DMSO. The final assay mixture was incubated at room temperature for 60 minutes.
A solution of Europium-labeled anti-phospho-CREB (Ser133) antibody (Perkin Elmer Product No. TRF0200-M), EDTA and LANCE™ Detection Buffer (Perkin Elmer Product No. CR97-100) were added to each well to obtain a final concentration of 2 nM antibody, 10 mM EDTA and 1× LANCE buffer. The resulting mixture was incubated at room temperature for 60 minutes.
The fluorescence resonance energy transfer (FRET) signal was measured on an Envision plate reader: Excitation filter=340 nm, APC emission=665 nm, Europium emission=615 nm, dichroic mirror=D400/D630, delay time=100 μs, and integration time=200 μs. The half maximal inhibitory concentration (IC50) values for compounds were calculated from the quotient of the fluorescence signal at 665 nm divided by the fluorescence signal at 615 nm. The quotient of the fluorescence signals in the presence of DMSO without compound is set as 100 percent enzymatic activity. A 4-parameter logistic model in PRISM (GraphPad) was used to calculate the IC50 for a given compound.

IC50, 500 to 5000 nM:
Cc1cc2c(Oc3ccc4c(c3)[C@H](C)N(C(=O)Nc3cnc(OC5CCN(C)CC5F)c(C(F)(F)F)c3)CC4)ccnc2[nH]1 (stereo in doubt) [VI-10]
CCN1CCN(Cc2ccc(NC(=O)N3CCc4nc(C)c(Oc5ccnc6[nH]ccc56)cc4C3C)cc2C(F)(F)F)CC1 (stereo not shown) [IV-10]
CCN1CCN(Cc2ccc(NC(=O)N3CCc4ccc(Oc5ccnc(C#N)c5)cc4[C@@H]3C)cc2C(F)(F)F)CC1 [V-11]
CCN1CCN(Cc2ccc(NC(=O)N3CCc4ccc(Nc5ncnn6cccc56)cc4C3)cc2C(F)(F)F)CC1 [compound 11, N-(4-((4-Ethylpiperazin-1-yl)methyl)-3-(trifluoromethyl)phenyl)-7-(pyrrolo[2,1-f][1,2,4]triazin-4-ylamino)-3,4-dihydroisoquinoline-2(1H)-carboxamide]
CCN1CCN(Cc2ccc(NC(=O)N3CCc4cc(C#N)c(Oc5ccnc6[nH]ccc56)cc4C3C)cc2C(F)(F)F)CC1 (stereo not shown) [IV-12]
CCN1CCN(Cc2ccc(NC(=O)N3CC4CCC3c3cc(Oc5ccnc6[nH]ccc56)ccc34)cc2C(F)(F)F)CC1 (stereo not shown) [compound 14, 7-((1H-pyrrolo[2,3-b]pyridin-4-yl)oxy)-N-(4-((4-ethylpiperazin-1-yl)methyl)-3-(trifluoromethyl)phenyl)-1,2,3,4-tetrahydro-1,4-(epiminomethano)naphthalene-10-carboxamide]
CC1CN(C(=O)Nc2cnc(OC3CCN(C)CC3)c(C(F)(F)F)c2)Cc2cc(Oc3ccnc4[nH]ncc34)cnc21 (stereo not shown) [VII-11]

IC50, 5000 to 10000 nM:
CCN1CCN(Cc2ccc(NC(=O)N3Cc4cc(Nc5ccnc(NC)c5)cnc4C(C)C3)cc2C(F)(F)F)CC1 (single isomer, unassigned) [IX-3]

IC50, < 500 nM:
CCN1CCN(Cc2ccc(NC(=O)N3CCc4ncc(Oc5ncnn6cccc56)cc4C3)cc2C(F)(F)F)CC1 [compound 8, N-[4-[(4-Ethylpiperazin-1-yl)methyl]-3-(trifluoromethyl)phenyl]-3-[pyrrolo[2,1-f][1,2,4]triazin-4-yloxy]-5,6,7,8-tetrahydro-1,6-naphthyridine-6-carboxamide]
CCN1CCN(Cc2ccc(NC(=O)N3Cc4cc(Oc5ccnc6[nH]c(C)cc56)cnc4C(C)C3)cc2C(F)(F)F)CC1 (single isomer, unassigned) [VII-20]
CCN1CCN(Cc2ccc(NC(=O)N3Cc4cc(Oc5ccnc6[nH]c(C)cc56)c(F)cc4C(C)C3)cc2C(F)(F)F)CC1 (stereo not shown) [IV-28]
CCN1CCN(Cc2ccc(NC(=O)N3Cc4cc(Oc5ccnc6[nH]c(C)cc56)ccc4C(C(C)C)C3)cc2C(F)(F)F)CC1 (stereo not shown) [IV-36]
CCN1CCN(Cc2ccc(NC(=O)N3CCc4cc(F)c(Oc5ncnn6cccc56)cc4C3C)cc2C(F)(F)F)CC1 (stereo not shown) [IV-35]
CCN1CCN(Cc2ccc(NC(=O)N3Cc4cc(Oc5ccnc6[nH]ccc56)ccc4C(C)C3)cc2C(F)(F)F)CC1 (stereo not shown) [IV-3]
CCN1CCN(Cc2ccc(NC(=O)N3CCc4ccc(Oc5ccnc(C(=O)NC)c5)cc4[C@@H]3C)cc2C(F)(F)F)CC1 [V-13]
CCN1CCN(Cc2ccc(NC(=O)N3CCc4c(F)cc(Oc5ccnc6[nH]ccc56)cc4C3C)cc2C(F)(F)F)CC1 (stereo not shown) [IV-14]
CCN1CCN(Cc2ccc(NC(=O)N3CCc4c(F)cc(Oc5ccnc6[nH]ccc56)cc4C3C)cc2C(F)(F)F)CC1 (stereo not shown) [IV-15]
CCN1CCN(Cc2ccc(NC(=O)N3CCc4ccc(Oc5ccnc6[nH]c(C7(O)COC7)cc56)cc4[C@@H]3C)cc2C(F)(F)F)CC1 [V-23]
CCN1CCN(Cc2ccc(NC(=O)N3Cc4cc(Oc5ccnc6[nH]c(C)cc56)cnc4C(C)C3)cc2C(F)(F)F)CC1 (single isomer, unassigned) [VII-4]
CCN1CCN(Cc2ccc(NC(=O)N3CCc4ccc(Oc5ccnc(NC(=O)C6CC6)c5)cc4C3)cc2C(F)(F)F)CC1 [II-15]

same assay, conditions: 1 mM ATP, Table 20

IC50, < 500 nM:
CC[C@H]1CN(C(=O)Nc2ccc(CN3CCNCC3)c(C(F)(F)F)c2)Cc2cc(Oc3ccnc4[nH]c(CO)cc34)ccc21 [XV-5]
CC[C@H]1CN(C(=O)Nc2ccc(CN3CCN(C)CC3)c(C(F)(F)F)c2)Cc2cc(Oc3ccnc4[nH]c(C(=O)NCCCO)cc34)cnc21 [XIV-108]
CC[C@@H]1CN(C(=O)Nc2ccc(CN3CCNCC3)c(C(F)(F)F)c2)Cc2cc(Oc3ccnc4[nH]c(C5CC5)cc34)cnc21 [XIV-64]
C[C@H]1CN(C(=O)Nc2ccc(CN3CCN(C)CC3)c(C(F)(F)F)c2)Cc2cc(Oc3ccnc4[nH]c(CO)cc34)cnc21 [XIV-78]
C[C@H]1c2cc(Oc3ccnc4[nH]c(C5(O)COC5)cc34)ccc2CCN1C(=O)Nc1cnc(OC2CCN(C)CC2)c(C(F)(F)F)c1 [XIII-4]
C[C@H]1c2cc(Oc3ccnc4[nH]c(C5(O)COC5)cc34)ccc2CCN1C(=O)Nc1ccc(CN2CCN(CCO)CC2)c(C(F)(F)F)c1 [XIII-6]
C[C@@H]1Cc2ccc(Oc3ccnc4[nH]c(C(=O)N(C)C)cc34)cc2CN1C(=O)Nc1ccc(CN2CCN(C)CC2)c(C(F)(F)F)c1 [XVI-1]
CC[C@H]1CN(C(=O)Nc2ccc(CN3CCN(C)CC3)c(C(F)F)c2)Cc2cc(Oc3ccnc4[nH]c(C5(O)COC5)cc34)cnc21 [XIV-53]
C[C@@H]1Cc2ccc(Oc3ccnc4[nH]c(C(=O)N(C)C)cc34)cc2CN1C(=O)Nc1cnc(O[C@@H]2CCN(C)C[C@@H]2O)c(C(F)(F)F)c1 [XVI-6]
CCN1CCN(Cc2ccc(NC(=O)N3Cc4cc(Oc5ccnc6[nH]ccc56)cnc4C[C@H]3C)cc2C(F)(F)F)CC1 [XVIII-19]
Cc1cc2c(Oc3cnc4c(c3)CN(C(=O)Nc3ccc(CN5CCN(C)CC5)c(OC(F)(F)F)c3)C[C@H]4C)ccnc2[nH]1 [XIV-89]
CC[C@@H]1CN(C(=O)Nc2ccc(CN3CCN(CCO)CC3)c(C(F)F)c2)Cc2cc(Oc3ccnc4[nH]c(CO)cc34)ccc21 [XV-7]
CC[C@@H]1CN(C(=O)Nc2ccc(CN3CCNCC3)c(C(F)(F)F)c2)Cc2cc(Oc3ccnc4[nH]c(C5(O)COC5)cc34)ccc21 [XV-10]
CC[C@H]1CN(C(=O)Nc2ccc(CN3CCN(C)CC3)c(C(F)(F)F)c2)Cc2cc(Oc3ccnc4[nH]c(C(=O)N(C)CCCO)cc34)cnc21 [XIV-111]
C[C@H]1CN(C(=O)Nc2ccc(CN3CCN(C)CC3)c(C(F)(F)F)c2)Cc2cc(Oc3c(F)cnc4[nH]c(C5(O)COC5)cc34)cnc21 [XIV-88]
CN1CCN(Cc2ccc(NC(=O)N3CCc4ccc(Oc5c(F)cnc6[nH]c(C(=O)N(C)C)cc56)cc4C3)cc2C(F)(F)F)CC1 [XVIII-4]
CC[C@H]1CN(C(=O)Nc2ccc(CN3CCN(CC)CC3)c(C(F)(F)F)c2)Cc2cc(Oc3ccnc4[nH]c(C(=O)N(C)C)cc34)cnc21 [XIV-131]
CC[C@H]1CN(C(=O)Nc2ccc(CN3CCN(C)CC3)c(C(F)(F)F)c2)Cc2cc(Oc3ccnc4[nH]c(C5(O)COC5)cc34)cnc21 [XIV-51]

IC50, 5000 to 10000 nM:
CC[C@@H]1CN(C(=O)Nc2ccc(CN3CCN(C)CC3)c(C(F)(F)F)c2)Cc2cc(Oc3ccnn4cc(C(=O)N(C)C)nc34)cnc21 [XIV-115]

IC50, > 10000 nM:
CC[C@@H]1CN(C(=O)Nc2cnc(O[C@H]3CCN(C)C3)c(C(F)(F)F)c2)Cc2cc(Oc3ccnc4[nH]c(C)cc34)cnc21 [XIV-67]
CC[C@H]1CN(C(=O)Nc2ccc(CN3CCN(CC(F)(F)F)CC3)c(C(F)(F)F)c2)Cc2cc(Oc3ccnc4[nH]c(C(=O)N(C)C)cc34)cnc21 [XIV-140]

IC50, 500 to 5000 nM:
CCN1CCN(Cc2ccc(NC(=O)N3CCc4ncc(Oc5ncnc6[nH]c(C)cc56)cc4[C@@H]3C)cc2C(F)(F)F)CC1 [XI-7]
CCN1CCN(Cc2ccc(NC(=O)N3CCc4ncc(Oc5ccnc6[nH]ccc56)cc4[C@H]3C)cc2C(F)(F)F)CC1 [XI-4]
